From PubChem BioAssay (NCI)
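Results reflect a 48-hour exposure of cells in 96-well plates to compound at five concentrations. GI50 marks 50% less growth. Definition used: TGI = concentration required for complete inhibition of growth.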

Test system: MDA-MB-468 breast
Test: NCI anticancer screen, dose series, 48 h

SMILES | GI50 [nM] | TGI [nM]
C=C1CCC2C3(C)COC(c4ccc(Cl)cc4)OC3CCC2(C)C1/C=C/C1=CCOC1=O (centres undefined) | 502 | 6250
Nc1nc(N)c2c(n1)NC(c1ccc(Cl)cc1)CC(c1ccc(Nc3nc(NCCO)nc(Nc4ccc(Cl)cc4)n3)cc1)=N2 (centres undefined) | 1390 | 2790
CC(C)CCC(=O)[C@@H](C)[C@H]1[C@@H](OC2OCC(O)C(O)C2NS(C)(=O)=O)C[C@H]2[C@@H]3CC=C4C[C@@H](O)CC[C@]4(C)[C@H]3CC[C@]12C (some centres undefined) | 3380 | 11200
CC[C@]12C=CCN3CC[C@@]4(c5ccc(OC)cc5N(C)[C@H]4[C@@](O)(C(=O)OC)[C@@H]1OC(=O)CCC(=O)N[C@H](Cc1c[nH]c4ccccc14)C(=O)OC)[C@@H]32 | 1640 | 3140
O=C(Nc1cccnc1)c1ccc2ccc3ccc(C(=O)Nc4cccnc4)nc3c2n1 | 69.7 | 442
O=C(Nc1ccc2c(c1)OCO2)C(=O)c1c[nH]c2cc(F)ccc12 | 5700 | 67900
CCOC(=O)c1csc(NC(=O)COc2cccc(/C=C3\CSc4ccccc4C3=O)c2)n1 | 66.1 | 185
Oc1ccc(CSc2nnc(-c3ccc(Cl)cc3)o2)c2cccnc12 | 2470 | > 100000
CC1(O)Cc2c(O)c3c(c(O)c2CC1O)C(=O)C=CC3=O (centres undefined) | 553 | 1930
COc1cc2ncn(-c3cc(OCc4ccccc4C(F)(F)F)c(C(C)=O)s3)c2cc1OC | > 23300 | > 25000
CC(C)(C)NC/C(=C\c1ccccc1)C(=O)c1ccccc1 | 713 | 2180
O=C(Cn1c(C(=O)c2ccccc2)nc2ccccc21)c1ccc(F)cc1 | 2020 | 16600
CC(C)(C)c1ccc(O)c(CN(Cc2cc(C(C)(C)C)ccc2O)C2CCCCC2)c1 | 4400 | 19200
O=S(=O)(Nc1ccc2ccccc2c1)c1ccc(-c2cnc(C3CC3)o2)cc1 | 327 | 12000
Cc1nnc(-c2ccc(C)c(-c3ccc(C(=O)NCc4ccc(Cl)cc4)cc3)c2)o1 | 2910 | 15100
COc1ccc(/C=C\c2cc(OC)c(OC)c(OC)c2)c(O)c1O | 74.1 | 21400
CCOc1c(C#N)c2c(N)ncnc2n1C1OC(CO)C(O)C1O (centres undefined) | 1750 | 5980
C/C=C(/C)C(=O)OC1C=C(CO)C(=O)C(OC(=O)C(C)(O)C(C)Cl)C1C(C)C (centres undefined) | 1050 | 2800
O=C(NNC(=S)Nc1ccccc1)c1ccccn1 | 2840 | 90900
COc1cc(-c2ccc(NC(=O)NC3CC3)c(OC)c2)ccc1NC(=O)NC1CC1 | > 100000 | > 100000
COc1cc(/C=C\c2cc(/C=C\c3ccc(O)c(OC)c3)n(C(=O)CNc3ccc(Cl)cc3)n2)ccc1O | 3170 | 9690
O=C(Nc1cccc(Cl)c1)c1cc(N=Nc2ccc([N+](=O)[O-])cc2Cl)ccc1O | 2910 | > 100000
CC[C@@H](C)Nc1cc(C(=O)NC2CC3CCC(C2)N3c2ccc(C(=O)C3CC3)cn2)c(C)cc1C(N)=O (some centres undefined) | 18.9 | 83.8
CCCCCCN(C)Cc1ccc(OCCOc2ccc(CN(C)CCCCCC)cc2)cc1 | 1160 | 2480
CC(=O)C1CCC2C3CC=C4CC(SC(=N)N)CCC4(C)C3CCC12C (centres undefined) | 1540 | 2900
O=C(Nc1nc(-c2ccc(Cl)cc2)nc2c1sc(=S)n2-c1ccccc1)C(F)(F)F | 3790 | 20500
CN1CCN(Cc2ccc(NC(=O)c3cncc(C#Cc4cnn5ccccc45)c3)cc2C(F)(F)F)CC1 | 965 | 2080
